# Test results from patent publication US10221138B2, “Biaryl derivatives as GPR120 agonists” (LG CHEM, LTD., priority 2013, dated 2019).
# Biological target: T1, hGPR120 (Homo sapiens, UniProt Q5NUL3)
# T1 construct: expressed in transfected cells; host or cells: CHO-K1
# T1 sequence (Q5NUL3 1-361): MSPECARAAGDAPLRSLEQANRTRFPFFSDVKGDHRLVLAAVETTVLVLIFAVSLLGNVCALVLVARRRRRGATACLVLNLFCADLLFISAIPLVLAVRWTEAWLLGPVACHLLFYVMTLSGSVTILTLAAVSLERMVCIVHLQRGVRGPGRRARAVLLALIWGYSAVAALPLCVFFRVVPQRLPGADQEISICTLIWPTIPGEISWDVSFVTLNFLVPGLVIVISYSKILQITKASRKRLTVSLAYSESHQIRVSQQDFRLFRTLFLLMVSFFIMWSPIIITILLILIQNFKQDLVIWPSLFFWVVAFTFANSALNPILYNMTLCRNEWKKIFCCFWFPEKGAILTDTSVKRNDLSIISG
# Assay: Measurement of activity of GPR120 agonist (cell-based calcium fluorescence assay)
# Settings: CHO-K1 cells expressing Ga16 and hGPR120, Calcium 5 dye fluorescence; activity class; read-out: EC50
# Protocol: CHO-K1 cells expressing Ga16 and hGPR120 were dispensed into each well of a 96-well plate (3×10^4 cells/100 μl/well) and then incubated in 5% CO2, 37° C. incubator for 18 hours. Each well was treated with 100 μl of Calcium 5 dye (Molecular Devices) solution including 2% DMSO and then incubated in 5% CO2, 37° C. incubator for 1 hour. Serially diluted GPR120 agonists were prepared to a final concentration of 0.5% DMSO in a 96-well plate.
# Fluorescence increased by the serially diluted GPR120 agonists is calculated as a relative percent (%) value based on the fluorescence represented by the treatment of 1% DMSO only. […] The calculation of measurement was carried out by using statistical software (Prizm).
# Activity is denoted based on the following criteria: […]
row,SMILES,EC50 [nM]
1,"O=C(O)CCCSc1ccc(-c2cccc(Oc3ccccc3)c2)cc1 [Example 125, 4-(3′-phenoxy-biphenyl-4-ylsulfanyl)-butyric acid]",< 200
2,"O=C(O)CCCSc1ccc(-c2cc(F)ccc2OC2CCCC2)cc1 [Example 179, 4-(2′-cyclopentyloxy-5′-fluoro-biphenyl-4-ylsulfanyl)-butyric acid]",200 to 2000
3,"CC(C)Sc1cccc(-c2ccc(OCCCC(=O)O)c(F)c2)n1 [Example 5, 4-[2-fluoro-4-(6-isopropylsulfanyl-2-pyridyl)phenoxy]butyric acid]",200 to 2000
4,"O=C(O)C1CC1COc1c(F)cc(-c2cccnc2SC2CCC2)cc1F (stereo not drawn) [Example 60, 2-[4-(2-cyclobutylsulfanyl-pyridin-3-yl)-2,6-difluoro-phenoxymethyl]-cyclopropanecarboxylic acid]",< 200
5,"Cc1cnc(OC(C)C)c(-c2ccc(SCCCC(=O)O)c(F)c2)c1 [Example 187, 4-[2-fluoro-4-(2-isopropoxy-5-methyl-pyridin-3-yl)-phenylsulfanyl]-butyric acid]",< 200
6,"CCCNc1ccccc1-c1cc(F)c(SCCCC(=O)O)c(F)c1 [Example 166, 4-(3,5-difluoro-2′-propylamino-biphenyl-4-ylsulfanyl)-butyric acid]",< 200
7,"Cc1cnc(OC2CCCC2)c(-c2ccc(SCCCC(=O)O)c(F)c2)c1 [Example 186, 4-[4-(2-cyclopentyloxy-5-methyl-pyridin-3-yl)-2-fluoro-phenylsulfanyl]-butyric acid]",< 200
8,"O=C(O)CCCSc1ccc(-c2cccnc2OC2CCOCC2)cc1F [Example 244, 4-{2-fluoro-4-[2-(tetrahydropyran-4-yloxy)-pyridin-3-yl]-phenylsulfanyl}-butyric acid]",200 to 2000
9,"CC(CCC(=O)O)Oc1c(F)cc(-c2cccc(OC3CCC3)n2)cc1F (stereo not drawn) [Example 29, 4-[4-[6-(cyclobutoxy)-2-pyridyl]-2,6-difluoro-phenoxy]pentanoic acid]",< 200
10,"CC(C)Oc1ncccc1-c1cc(F)c(SCCCC(=O)O)c(F)c1 [Example 138, 4-[2,6-difluoro-4-(2-isopropoxy-pyridin-3-yl)-phenylsulfanyl]-butyric acid]",< 200
11,"O=C(O)CCCOc1ccc(-c2cccc(OC3CCCC3)c2)c(F)c1F [Example 14, 4-[4-[3-(cyclopentoxy)phenyl]-2,3-difluoro-phenoxy]butyric acid]",200 to 2000
12,"O=C(O)CCCSc1ccc(-c2cccnc2SC2CCC2)cc1 [Example 153, 4-[4-(2-cyclobutylsulfanyl-pyridin-3-yl)-phenylsulfanyl]-butyric acid]",< 200
13,"O=C(O)CCCSc1c(F)cc(-c2cccnc2NC2CCCC2)cc1F [Example 249, 4-[4-(2-cyclopentylamino-pyridin-3-yl)-2,6-difluoro-phenylsulfanyl]-butyric acid]",< 200
14,"O=C(O)CCCOc1c(F)cc(-c2cccnc2OCCN2CC2)cc1F [Example 218, 4-[4-[2-[2-(aziridin-1-yl)ethoxy]-3-pyridyl]-2,6-difluoro-phenoxy]butanoic acid]",> 20000
15,"O=C(O)CCCOc1ccc(-c2ccccc2OC2CCCC2)cc1 [Example 56, 4-(2′-cyclopentyloxy-biphenyl-4-yloxy)-butyric acid]",200 to 2000
16,"CCCNc1ccccc1-c1ccc(OCCCC(=O)O)cc1 [Example 86, 4-[4-[2-(propylamino)phenyl]phenoxy]butanoic acid]",200 to 2000
17,"O=C(O)CCCSc1ccc(-c2cccc(SC3CCCC3)n2)cc1 [Example 133, 4-[4-(6-cyclopentylsulfanyl-pyridin-2-yl)-phenylsulfanyl]-butyric acid]",200 to 2000

# More lines, now with the values ahead:
row,EC50 [nM],SMILES
1,< 200,"O=C(O)CCCOc1c(F)cc(-c2cccc(NC3CCCC3)c2)cc1F [Example 80, 4-[4-[3-(cyclopentylamino)phenyl]-2,6-difluoro-phenoxy]butanoic acid]"
2,< 200,"O=C(O)CCCSc1c(F)cc(-c2cccnc2OC2CCCC2)cc1F [Example 145, 4-[4-(2-cyclopentyloxy-pyridin-3-yl)-2,6-difluoro-phenylsulfanyl]-butyric acid]"
3,< 200,"CCCOc1cccc(-c2cc(F)c(OCCCC(=O)O)c(F)c2)n1 [Example 23, 4-[2,6-difluoro-4-(6-propoxy-2-pyridyl)phenoxy]butyric acid]"
4,> 20000,"CN(C)C1CCN(c2cccc(-c3cc(F)c(OCCCC(=O)O)c(F)c3)n2)C1 (stereo not drawn) [Example 212, 4-[4-[6-[3-(dimethylamino)pyrrolidin-1-yl]-2-pyridyl]-2,6-difluoro-phenoxy]butanoic acid]"
5,2000 to 20000,"CC#CCOc1ncccc1-c1cc(F)c(OCCCC(=O)O)c(F)c1 [Example 270, 4-[4-(2-but-2-ynyloxy-pyridin-3-yl)-2,6-difluoro-phenoxy]-butyric acid]"
6,< 200,"O=C(O)CCCOc1c(F)cc(-c2cccnc2OC2CCCCC2)cc1F [Example 228, 4-[4-(2-cyclohexyloxy-pyridin-3-yl)-2,6-difluoro-phenoxy]-butyric acid]"
7,< 200,"O=C(O)CCCOc1c(F)cc(-c2cccc(C3CCCC3)n2)cc1F [Example 105, 4-[4-(6-cyclopentyl-2-pyridyl)-2,6-difluoro-phenoxy]butanoic acid]"
8,< 200,"CCSc1ncccc1-c1cc(F)c(OCCCC(=O)O)c(F)c1 [Example 206, 4-[4-(2-ethylsulfanyl-pyridin-3-yl)-2,6-difluoro-phenoxy]-butanoic acid]"
9,2000 to 20000,"Cc1cc(Oc2ncccc2-c2cc(F)c(OCCCC(=O)O)c(F)c2)no1 [Example 217, 4-[2,6-difluoro-4-[2-(5-methylisoxazol-3-yl)oxy-3-pyridyl]phenoxy]butanoic acid]"
10,< 200,"CC(C)=Cc1cccc(-c2cc(F)c(OCCCC(=O)O)c(F)c2)n1 [Example 65, 4-{2,6-difluoro-4-[6-(2-methyl-propenyl)-pyridin-2-yl]-phenoxy}-butyric acid]"
11,< 200,"CC(C)Oc1cccc(-c2cc(F)c(SCCCC(=O)O)c(F)c2)n1 [Example 137, 4-[2,6-difluoro-4-(6-isopropoxy-pyridin-2-yl)-phenylsulfanyl]-butyric acid]"
12,< 200,"CCCSc1ncccc1-c1cc(F)c(OCCCCC(=O)O)c(F)c1 [Example 236, 5-[2,6-difluoro-4-(2-propylsulfanyl-3-pyridyl)phenoxy]pentanoic acid]"
13,< 200,"O=C(O)CCCOc1c(F)cc(-c2cccc(CC3CCC3)n2)cc1F [Example 103, 4-[4-[6-(cyclobutylmethyl)-2-pyridyl]-2,6-difluoro-phenoxy]butanoic acid]"
14,200 to 2000,"O=C(O)CCCCOc1c(F)cc(-c2cccnc2OC2CC2)cc1F [Example 197, 5-[4-(2-cyclopropoxy-pyridin-3-yl)-2,6-difluoro-phenoxy]-pentanoic acid]"
15,200 to 2000,"O=C(O)CCCCCOc1c(F)cc(-c2cccnc2OCC2CC2)cc1F [Example 273, 6-[4-[2-(cyclopropylmethoxy)-3-pyridyl]-2,6-difluoro-phenoxy]hexanoic acid]"
16,< 200,"O=C(O)CCCCOc1c(F)cc(-c2cccnc2OC2CCCC2)cc1F [Example 232, 5-[4-(2-cyclopentyloxy-pyridin-3-yl)-2,6-difluoro-phenoxy]-pentanoic acid]"
17,< 200,"CCCSc1ncccc1-c1cc(F)c(OCCCCCC(=O)O)c(F)c1 [Example 64, 6-[2,6-difluoro-4-(2-propylsulfanyl-3-pyridyl)phenoxy]hexanoic acid]"
18,< 200,"O=C(O)CCCSc1c(F)cc(-c2cccnc2OCC2CCC2)cc1F [Example 248, 4-[4-(2-cyclobutylmethoxy-pyridin-3-yl)-2,6-difluoro-phenylsulfanyl]-butyric acid]"
19,< 200,"O=C(O)CCCOc1c(F)cc(-c2cccnc2OC2CCCC2)cc1F [Example 44, 4-[4-(2-cyclopentyloxy-pyridin-3-yl)-2,6-difluoro-phenoxy]-butyric acid]"
20,200 to 2000,"O=C(O)CCCOc1c(F)cc(-c2cccnc2SC2CC2)cc1F [Example 205, 4-[4-(2-cyclopropylsulfanyl-pyridin-3-yl)-2,6-difluoro-phenoxy]-butanoic acid]"
21,200 to 2000,"O=C(O)CCCCCOc1c(F)cc(-c2cccnc2SC2CCCC2)cc1F [Example 275, 6-[4-(2-cyclopentylsulfanyl-3-pyridyl)-2,6-difluoro-phenoxy]hexanoic acid]"
22,< 200,"O=C(O)CCCSc1ccc(-c2cccnc2SC2CCC2)cc1F [Example 152, 4-[4-(2-cyclobutylsulfanyl-pyridin-3-yl)-2-fluoro-phenylsulfanyl]-butyric acid]"
23,< 200,"CCCSc1cccc(-c2cc(F)c(OCCCC(=O)O)c(F)c2)n1 [Example 21, 4-[2,6-difluoro-4-(6-propylsulfanyl-2-pyridyl)phenoxy]butyric acid]"
24,< 200,"CC(C)Oc1ncccc1-c1cc(F)c(OCCCCC(=O)O)c(F)c1 [Example 213, 5-[2,6-difluoro-4-(2-isopropoxy-pyridin-3-yl)-phenoxy]-pentanoic acid]"
25,2000 to 20000,"CC(C)Cc1ncccc1-c1cc(F)c(OCCCC(=O)O)c(F)c1 [Example 106, 4-[2,6-difluoro-4-(2-isobutyl-3-pyridyl)phenoxy]butanoic acid]"
